Reference: BindingDB's records for doi:10.1016/j.bmcl.2010.12.109 (Ono Pharmaceutical, 2011)
Where a name gives a salt, the structure may show the parent alone.

Assay: Antagonist activity at human CCR5 expressed in HOS cells assessed as inhibition of cell fusion with HIV gp120 expressing HEK293 cells by LTR luciferase assay

CCCCN1C(=O)[C@@H]([C@H](O)C(C)C)NC(=O)C12CCN(Cc1ccc(Oc3ccccc3)cc1)CC2 [(R)-1-butyl-3-((R)-1-hydroxy-2-methyl-propyl)-9-(4-phenoxy-benzyl)-1,4,9-triaza-spiro[5.5]undecane-2,5-dione hydrochloride]
IC50: 229 nM

CCCCN1C(=O)C(CC(C)C)NC(=O)C12CCN(Cc1ccc(Oc3ccccc3)cc1)CC2 (stereo not drawn) [rac-1-Butyl-3-isobutyl-9-(4-phenoxybenzyl)-1,4,9-triazaspiro[5.5]undecane-2,5-dione hydrochloride]
IC50: 851 nM
